Measurements taken from ChEMBL document CHEMBL1201862, “PubChem BioAssay data set” (2004).
Active and inactive are the calls of the source.

Columns and labels:
[1] = molecular target: T1, E3 ubiquitin-protein ligase XIAP (Homo sapiens, UniProt P98170); assay: Counter Screen using XIAP-Bir3 for Chemical Antagonists of Bir1/2 domains of IAP-family anti-apoptotic proteins. [Related pubchem assays (depositor defined):AID1018, AID1449, AID1514, AID1638, AID1749, AID1750, AID488957, AID488963]
[2] = molecular target: T1, E3 ubiquitin-protein ligase XIAP; assay: XIAP antagonists, biochemical, IAP family, fluorescence polarization (AID 1018); type: functional
[3] = molecular target: 14-3-3 protein gamma (Homo sapiens, UniProt P61981); assay: modulators of 14-3-3 gamma client binding – dose response (AID 711); type: functional
Chain of 14-3-3 protein gamma (P61981 whole entry): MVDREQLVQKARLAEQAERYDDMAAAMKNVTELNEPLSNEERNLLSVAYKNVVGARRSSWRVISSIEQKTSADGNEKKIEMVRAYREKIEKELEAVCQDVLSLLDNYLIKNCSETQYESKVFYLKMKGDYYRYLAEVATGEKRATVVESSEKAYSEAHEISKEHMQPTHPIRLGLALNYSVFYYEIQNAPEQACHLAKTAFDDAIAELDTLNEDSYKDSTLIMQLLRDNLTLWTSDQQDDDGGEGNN

[4] = molecular target: Peroxisome proliferator-activated receptor gamma/Nuclear receptor coactivator 2 (Homo sapiens, UniProt P37231); type: functional;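 also: agonist potency for raising coactivator recruitment to the receptor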
Chain of Peroxisome proliferator-activated receptor gamma/Nuclear receptor coactivator 2 (P37231 whole entry): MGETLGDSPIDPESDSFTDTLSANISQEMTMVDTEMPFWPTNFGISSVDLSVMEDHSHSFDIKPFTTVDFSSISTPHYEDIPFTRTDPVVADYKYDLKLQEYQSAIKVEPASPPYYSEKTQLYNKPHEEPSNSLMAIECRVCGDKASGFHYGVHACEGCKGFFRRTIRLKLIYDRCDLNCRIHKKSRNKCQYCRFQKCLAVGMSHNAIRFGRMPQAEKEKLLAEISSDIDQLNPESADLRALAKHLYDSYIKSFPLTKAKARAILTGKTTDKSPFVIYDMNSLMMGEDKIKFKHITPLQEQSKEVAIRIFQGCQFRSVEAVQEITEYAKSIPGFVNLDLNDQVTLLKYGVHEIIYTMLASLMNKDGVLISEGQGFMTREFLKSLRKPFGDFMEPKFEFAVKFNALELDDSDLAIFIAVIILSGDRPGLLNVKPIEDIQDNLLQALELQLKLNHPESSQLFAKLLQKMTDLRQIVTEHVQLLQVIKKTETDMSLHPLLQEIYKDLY
Chain of Peroxisome proliferator-activated receptor gamma/Nuclear receptor coactivator 2 (Q15596 whole entry, further chain): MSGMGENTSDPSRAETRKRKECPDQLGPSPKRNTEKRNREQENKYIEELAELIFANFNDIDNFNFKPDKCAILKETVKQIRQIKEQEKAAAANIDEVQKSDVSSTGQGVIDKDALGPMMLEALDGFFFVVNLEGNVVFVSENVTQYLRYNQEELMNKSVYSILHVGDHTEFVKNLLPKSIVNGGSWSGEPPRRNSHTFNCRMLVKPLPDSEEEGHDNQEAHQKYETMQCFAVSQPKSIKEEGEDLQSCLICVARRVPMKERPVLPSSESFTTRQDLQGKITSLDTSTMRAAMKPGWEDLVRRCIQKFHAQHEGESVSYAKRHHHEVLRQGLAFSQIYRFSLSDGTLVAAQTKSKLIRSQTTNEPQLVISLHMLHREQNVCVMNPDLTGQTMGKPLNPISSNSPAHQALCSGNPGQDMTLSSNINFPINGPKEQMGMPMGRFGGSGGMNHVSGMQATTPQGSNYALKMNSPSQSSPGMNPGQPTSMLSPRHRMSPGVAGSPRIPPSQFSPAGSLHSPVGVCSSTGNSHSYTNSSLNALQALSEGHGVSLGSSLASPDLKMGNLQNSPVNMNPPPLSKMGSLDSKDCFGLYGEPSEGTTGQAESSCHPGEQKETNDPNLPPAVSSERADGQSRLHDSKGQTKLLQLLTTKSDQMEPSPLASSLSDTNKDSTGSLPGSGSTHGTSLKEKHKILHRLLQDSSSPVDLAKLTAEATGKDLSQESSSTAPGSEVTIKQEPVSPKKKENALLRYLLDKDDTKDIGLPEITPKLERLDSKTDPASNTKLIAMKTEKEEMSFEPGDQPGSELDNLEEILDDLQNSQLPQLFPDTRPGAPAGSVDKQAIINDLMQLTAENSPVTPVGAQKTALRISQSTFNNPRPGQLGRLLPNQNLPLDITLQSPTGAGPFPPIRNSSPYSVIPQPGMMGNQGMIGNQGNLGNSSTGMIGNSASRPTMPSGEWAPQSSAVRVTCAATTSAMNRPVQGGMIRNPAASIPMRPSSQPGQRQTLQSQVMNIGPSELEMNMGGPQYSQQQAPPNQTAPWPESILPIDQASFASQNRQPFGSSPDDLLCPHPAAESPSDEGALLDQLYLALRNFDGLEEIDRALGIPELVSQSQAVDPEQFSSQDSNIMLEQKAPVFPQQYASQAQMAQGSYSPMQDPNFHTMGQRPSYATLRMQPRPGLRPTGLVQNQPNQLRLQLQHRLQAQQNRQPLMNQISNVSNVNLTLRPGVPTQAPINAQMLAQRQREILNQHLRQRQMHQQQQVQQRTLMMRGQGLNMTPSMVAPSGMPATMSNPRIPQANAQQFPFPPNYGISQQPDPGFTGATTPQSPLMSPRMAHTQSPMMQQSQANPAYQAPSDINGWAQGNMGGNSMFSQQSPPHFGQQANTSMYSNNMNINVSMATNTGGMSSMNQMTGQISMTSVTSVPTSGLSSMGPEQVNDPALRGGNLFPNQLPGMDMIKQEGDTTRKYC

[5] = molecular target: Peroxisome proliferator-activated receptor gamma/Nuclear receptor coactivator 1 (Homo sapiens, UniProt P37231); type: functional;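 also: agonist potency as compounds enhance coactivator SRC-1 recruitment to PPARgamma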
Chain of Peroxisome proliferator-activated receptor gamma/Nuclear receptor coactivator 1 (P37231 whole entry): as the sequence (P37231 whole entry) above
Chain of Peroxisome proliferator-activated receptor gamma/Nuclear receptor coactivator 1 (Q15788 whole entry, further chain): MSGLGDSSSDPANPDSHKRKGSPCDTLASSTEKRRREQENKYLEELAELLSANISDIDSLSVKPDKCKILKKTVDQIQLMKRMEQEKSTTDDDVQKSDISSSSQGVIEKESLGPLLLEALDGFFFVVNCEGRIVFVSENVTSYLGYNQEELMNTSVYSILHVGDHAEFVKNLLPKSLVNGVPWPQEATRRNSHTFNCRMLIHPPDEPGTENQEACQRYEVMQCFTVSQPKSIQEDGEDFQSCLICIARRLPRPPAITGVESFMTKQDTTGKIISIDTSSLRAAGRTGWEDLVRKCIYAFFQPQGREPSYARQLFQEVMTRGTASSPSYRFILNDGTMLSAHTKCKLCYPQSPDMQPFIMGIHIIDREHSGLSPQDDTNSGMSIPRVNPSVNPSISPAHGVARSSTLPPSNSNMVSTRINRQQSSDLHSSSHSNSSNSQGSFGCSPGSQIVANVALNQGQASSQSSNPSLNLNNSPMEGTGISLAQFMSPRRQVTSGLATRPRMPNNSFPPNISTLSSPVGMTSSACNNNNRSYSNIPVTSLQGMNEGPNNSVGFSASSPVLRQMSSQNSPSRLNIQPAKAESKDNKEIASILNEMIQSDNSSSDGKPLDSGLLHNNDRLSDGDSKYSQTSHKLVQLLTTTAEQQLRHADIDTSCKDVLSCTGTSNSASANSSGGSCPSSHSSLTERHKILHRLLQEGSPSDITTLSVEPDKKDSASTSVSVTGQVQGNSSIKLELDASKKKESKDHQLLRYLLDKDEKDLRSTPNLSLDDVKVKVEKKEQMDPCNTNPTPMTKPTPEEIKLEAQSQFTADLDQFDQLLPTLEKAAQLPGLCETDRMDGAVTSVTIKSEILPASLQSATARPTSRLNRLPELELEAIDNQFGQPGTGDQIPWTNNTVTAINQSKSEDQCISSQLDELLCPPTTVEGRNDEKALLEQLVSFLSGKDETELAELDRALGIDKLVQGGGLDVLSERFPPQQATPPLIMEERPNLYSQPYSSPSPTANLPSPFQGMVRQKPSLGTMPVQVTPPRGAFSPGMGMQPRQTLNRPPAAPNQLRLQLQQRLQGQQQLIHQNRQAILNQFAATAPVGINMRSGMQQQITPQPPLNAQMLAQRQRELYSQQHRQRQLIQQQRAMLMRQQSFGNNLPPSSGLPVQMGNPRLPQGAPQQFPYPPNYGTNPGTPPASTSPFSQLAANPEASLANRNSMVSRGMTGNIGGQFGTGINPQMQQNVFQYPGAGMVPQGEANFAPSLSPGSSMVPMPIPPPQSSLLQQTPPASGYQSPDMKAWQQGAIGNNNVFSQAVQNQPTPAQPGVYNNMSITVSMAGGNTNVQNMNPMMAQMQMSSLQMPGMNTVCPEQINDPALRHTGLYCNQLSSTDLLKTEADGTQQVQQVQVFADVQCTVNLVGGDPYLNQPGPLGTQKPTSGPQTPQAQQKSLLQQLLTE

[6] = molecular target: Peroxisome proliferator-activated receptor gamma/Nuclear receptor coactivator 3 (Homo sapiens, UniProt P37231); type: functional;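 also: agonist potency for raising coactivator recruitment to the receptor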
[7] = Luminescence Cell-Based Dose Response HTS to Identify Inhibitors of 5'UTR Stem-Loop Driven Prion Protein mRNA Translation in H4 Neuroglioblastoma Cells. [Related pubchem assays: 1827 (Project Summary), 1813 (Primary HTS)]; type: functional
[8] = inhibitors of intracellular T. cruzi replication, confirmation, NIH3T3 host cells, beta-gal luminescence (AID 2044); type: functional, cell-based;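 also: intracellular parasites grown in NIH/3T3 mouse fibroblasts as host cells; luminescent beta-galactosidase reporter signal from transgenic T. cruzi replicating inside host cells; inhibitors lower the luminescence signal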
[9] = molecular target: Protein-tyrosine kinase 2-beta (Homo sapiens, UniProt Q14289);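 also: potency of inhibitors of PYK2 kinase phosphorylation of poly-GT substrate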
[10] = cytotoxicity toward NIH3T3 fibroblasts, dose response, counter-screen, cell-based, ATP luminescence, mouse fibroblasts (AID 2010); type: functional;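 also: cells exposed to compound for about 90 hours before reading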
[11] = molecular target: Delta-type opioid receptor (Homo sapiens, UniProt P41143); assay: Counterscreen for agonists of heterodimerization of the mu 1 (OPRM1) and delta 1 (OPRD1) opioid receptors: Luminescence-based cell-based high throughput dose response assay to identify agonists of OPRD1 homodimerization. [Related pubchem assays (depositor defined):AID504326, AID504355, AID504692, AID504904, AID504905]; type: functional
[12] = molecular target: Mu-type opioid receptor (Homo sapiens, UniProt P35372); assay: Counterscreen for agonists of heterodimerization of the mu 1 (OPRM1) and delta 1 (OPRD1) opioid receptors: Luminescence-based cell-based high throughput dose response assay to identify agonists of OPRM1 homodimerization.; type: functional;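 also: U2OS cells expressing OPRM1 and beta-arrestin as split beta-galactosidase partners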
[13] = molecular target: 5-hydroxytryptamine receptor 5A (Homo sapiens, UniProt P47898); assay: Counterscreen for agonists of OPRM1-OPRD1 heterodimerization: luminescence-based cell-based high throughput dose response assay to identify agonists of 5-hydroxytryptamine (serotonin) 5A receptor (HTR5A). [Related pubchem assays (depositor defined):AID504326, AID504355, AID504692, AID504904, AID504905]; type: functional
Chain of 5-hydroxytryptamine receptor 5A (P47898 whole entry): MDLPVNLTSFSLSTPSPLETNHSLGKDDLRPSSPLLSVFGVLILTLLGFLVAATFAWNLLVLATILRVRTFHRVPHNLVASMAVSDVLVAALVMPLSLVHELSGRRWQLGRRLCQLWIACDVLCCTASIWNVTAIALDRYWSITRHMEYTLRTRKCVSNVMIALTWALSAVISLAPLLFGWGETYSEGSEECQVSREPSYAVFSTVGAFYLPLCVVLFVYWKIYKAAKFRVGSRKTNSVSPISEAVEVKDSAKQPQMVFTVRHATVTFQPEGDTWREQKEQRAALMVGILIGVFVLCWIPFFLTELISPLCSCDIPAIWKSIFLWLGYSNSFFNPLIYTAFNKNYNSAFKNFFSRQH

[14] = molecular target: 26S proteasome non-ATPase regulatory subunit 14 (Homo sapiens, UniProt O00487); assay: inhibition of proteasome subunit RPN11 – biochemical, fluorescence polarization, uHTS hits, confirmation (AID 602368); type: functional
[15] = molecular target: 72 kDa type IV collagenase (Homo sapiens, UniProt P08253); assay: Dose Response validation of uHTS RPN11 inhibitor hits using a MMP-2 Fluorescence assay.; type: functional
[16] = molecular target: Prothrombin (Bos taurus, UniProt P00735); assay: thrombin inhibition, dose response, biochemical, fluorescence polarization, uHTS hits (AID 602369); type: functional
[17] = A High Throughput Confirmatory Assay used to Identify Novel Compounds that Inhibit Mycobacterium Tuberculosis in the absence of Glycerol.; type: functional
[18] = molecular target: Glyceraldehyde-3-phosphate dehydrogenase (Homo sapiens, UniProt P04406)
[19] = molecular target: T2, Bcl-2-related protein A1 (Mus musculus, UniProt Q07440); assay: Bfl-1 inhibitors blocking BH3 peptide binding, confirmation, biochemical, TR-FRET, mouse Bfl-1 (AID 621);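 also: TR-FRET binding of GST-Bfl-1 to FITC-labelled Bid peptide via terbium antibody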
T2 sequence (Q07440 whole entry): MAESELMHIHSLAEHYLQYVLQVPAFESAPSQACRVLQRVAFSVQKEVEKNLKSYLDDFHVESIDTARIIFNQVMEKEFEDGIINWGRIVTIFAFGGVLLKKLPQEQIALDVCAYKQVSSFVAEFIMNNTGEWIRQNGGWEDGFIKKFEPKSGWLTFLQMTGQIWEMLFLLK

[20] = molecular target: T2, Bcl-2-related protein A1; assay: Bfl-1 binding inhibitors, SAR follow-up, biochemical, fluorescence polarization (AID 1070)
[21] = molecular target: Aspartyl aminopeptidase (Plasmodium falciparum 3D7, UniProt Q8I2J3); assay: Counterscreen for inhibitors of M1 and M17 aminopeptidases: QFRET-based biochemical high throughput dose response assay for inhibitors of the Plasmodium falciparum M18 Aspartyl Aminopeptidase (PFM18AAP). [Related PubChem assays: 1619 (Screening assay (M17LAP inhibitors).), 1445 (Screening assay (M1AAP inhibitors).)]
[22] = test system: HEK293; assay: NOD1 signaling inhibitors, primary screen, cell-based, luminescence, uHTS (AID 1578); type: functional; details: Homo sapiens
[23] = molecular target: T3, Aminopeptidase N (Plasmodium falciparum FcB1/Columbia, UniProt O96935); assay: P. falciparum M1AAP inhibitors, biochemical, fluorogenic H-Leu-NHMec substrate, 1536-well (AID 1445); parameters: species or system Plasmodium falciparum 3D7, 3D7
T3 sequence (O96935 whole entry): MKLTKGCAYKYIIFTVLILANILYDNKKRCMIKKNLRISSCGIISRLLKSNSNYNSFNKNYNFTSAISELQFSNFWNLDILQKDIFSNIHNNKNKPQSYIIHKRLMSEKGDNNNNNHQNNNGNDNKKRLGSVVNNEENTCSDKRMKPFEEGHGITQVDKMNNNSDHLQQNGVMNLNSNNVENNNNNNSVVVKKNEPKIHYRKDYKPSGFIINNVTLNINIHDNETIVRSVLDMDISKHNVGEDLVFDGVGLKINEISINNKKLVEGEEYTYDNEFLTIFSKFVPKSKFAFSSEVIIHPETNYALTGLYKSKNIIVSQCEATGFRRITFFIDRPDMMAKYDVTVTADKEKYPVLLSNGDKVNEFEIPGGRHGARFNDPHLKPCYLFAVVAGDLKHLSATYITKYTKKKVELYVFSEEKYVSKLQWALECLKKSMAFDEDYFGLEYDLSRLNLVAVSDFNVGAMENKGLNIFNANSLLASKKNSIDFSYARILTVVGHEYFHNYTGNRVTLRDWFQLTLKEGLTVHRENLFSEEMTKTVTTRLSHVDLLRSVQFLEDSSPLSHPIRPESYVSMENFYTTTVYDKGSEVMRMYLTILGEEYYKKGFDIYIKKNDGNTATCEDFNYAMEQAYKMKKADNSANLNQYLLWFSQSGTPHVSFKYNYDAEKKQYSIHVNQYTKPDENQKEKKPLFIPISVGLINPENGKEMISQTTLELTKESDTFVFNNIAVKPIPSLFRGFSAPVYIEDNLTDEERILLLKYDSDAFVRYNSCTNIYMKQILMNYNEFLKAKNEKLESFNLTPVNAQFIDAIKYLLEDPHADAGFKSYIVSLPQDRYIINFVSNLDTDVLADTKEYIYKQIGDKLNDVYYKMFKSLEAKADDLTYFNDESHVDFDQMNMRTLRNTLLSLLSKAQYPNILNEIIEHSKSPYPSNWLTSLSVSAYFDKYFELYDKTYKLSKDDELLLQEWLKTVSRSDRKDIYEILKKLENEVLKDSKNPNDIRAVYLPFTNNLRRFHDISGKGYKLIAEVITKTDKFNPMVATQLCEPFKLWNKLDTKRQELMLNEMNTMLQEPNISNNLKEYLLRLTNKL

[24] = test system: HEK293; assay: cells; type: functional, cell-based; details: Homo sapiens
[25] = test system: HEK293; assay: cells; type: functional, cell-based; details: Homo sapiens; remark: listed apart in the source
[26] = molecular target: Procathepsin L (Homo sapiens, UniProt P07711); assay: cathepsin L inhibitors, dose response, counter-screen for M1/M17 aminopeptidase inhibitor project, biochemical, QFRET, 1536-well (AID 2214)
[27] = test system: HEK293; assay: NOD2 signaling inhibitors in MDP-stimulated cells, cell-based, uHTS, luminescence (AID 2001); type: functional; details: Homo sapiens
[28] = molecular target: T4, Calpain-2 catalytic subunit (Sus scrofa, UniProt P43367); assay: pig calpain II inhibitor potency, dose response, biochemical, fluorogenic peptide substrate (AID 1420); type: functional
T4 sequence (P43367 whole entry): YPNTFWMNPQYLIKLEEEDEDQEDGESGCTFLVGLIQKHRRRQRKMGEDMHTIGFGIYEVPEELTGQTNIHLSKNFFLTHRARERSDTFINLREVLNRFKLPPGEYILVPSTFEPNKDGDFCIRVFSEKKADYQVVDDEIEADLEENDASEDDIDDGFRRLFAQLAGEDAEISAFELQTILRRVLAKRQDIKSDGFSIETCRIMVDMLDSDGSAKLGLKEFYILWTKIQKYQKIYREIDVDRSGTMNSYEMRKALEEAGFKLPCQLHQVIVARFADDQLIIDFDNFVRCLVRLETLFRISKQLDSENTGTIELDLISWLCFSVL

[29] = molecular target: Sphingosine 1-phosphate receptor 2 (Homo sapiens, UniProt O95136); assay: Dose Response Cell Based Assay for Agonists of the S1P2 Receptor of Purchased Analogues. [Related pubchem assays: 729, 843, 854, 736 ]; type: functional
[30] = molecular target: Galanin receptor type 2 (Homo sapiens, UniProt O43603); assay: Dose Response cell-based high-throughput screening assay to identify antagonists of galanin receptor 2 (GALR2). [Related pubchem assays: 828, 866 ]; type: functional
[31] = molecular target: T5, Heat shock factor protein 1 (Mus musculus, UniProt P38532); assay: inhibition of MG132-induced HSE-luciferase signal, confirmation, cell-based, NIH3T3, luminescence, dose retest (AID 2382); type: functional;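 also: NIH3T3 fibroblasts with HSF1-driven luciferase reporter stressed by proteasome inhibitor MG132; luminescence from HSF1-driven luciferase expression after 8 hours of MG132 stress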
T5 sequence (P38532 whole entry): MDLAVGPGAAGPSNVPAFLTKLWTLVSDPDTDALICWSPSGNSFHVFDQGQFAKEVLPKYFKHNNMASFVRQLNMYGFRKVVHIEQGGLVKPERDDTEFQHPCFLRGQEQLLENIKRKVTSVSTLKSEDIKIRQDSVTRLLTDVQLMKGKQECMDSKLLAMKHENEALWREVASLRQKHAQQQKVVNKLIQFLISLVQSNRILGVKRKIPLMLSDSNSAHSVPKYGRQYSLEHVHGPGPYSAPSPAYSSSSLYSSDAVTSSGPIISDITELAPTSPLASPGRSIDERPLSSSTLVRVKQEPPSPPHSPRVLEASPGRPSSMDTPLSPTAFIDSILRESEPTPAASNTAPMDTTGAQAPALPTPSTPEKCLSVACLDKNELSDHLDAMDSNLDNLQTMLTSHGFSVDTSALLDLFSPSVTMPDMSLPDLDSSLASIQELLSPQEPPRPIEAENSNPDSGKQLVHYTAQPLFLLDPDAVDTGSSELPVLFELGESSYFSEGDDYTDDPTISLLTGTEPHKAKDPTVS

[32] = molecular target: Galanin receptor type 3 (Homo sapiens, UniProt O60755); assay: Fluorescence-based cell-based primary high throughput dose response assay to identify antagonists of the Galanin Receptor 3 (GalR3).; type: functional
[33] = cells; type: functional, cell-based; details: HEK-CNG
[34] = molecular target: COUP transcription factor 2 (Homo sapiens, UniProt P24468); assay: Luminescence-based cell-based high throughput dose response assay to identify inhibitors of COUP-TFII (NR2F2).; type: functional;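 also: HEK293 cells transiently cotransfected with COUP-TFII expression vector and reporter; luciferase reporter luminescence driven by COUP-TFII from the pX2-168 reporter plasmid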
[35] = M. tuberculosis H37Rv growth inhibitors, H37Rv strain (AID 1626); type: functional

T1 sequence (P98170 whole entry): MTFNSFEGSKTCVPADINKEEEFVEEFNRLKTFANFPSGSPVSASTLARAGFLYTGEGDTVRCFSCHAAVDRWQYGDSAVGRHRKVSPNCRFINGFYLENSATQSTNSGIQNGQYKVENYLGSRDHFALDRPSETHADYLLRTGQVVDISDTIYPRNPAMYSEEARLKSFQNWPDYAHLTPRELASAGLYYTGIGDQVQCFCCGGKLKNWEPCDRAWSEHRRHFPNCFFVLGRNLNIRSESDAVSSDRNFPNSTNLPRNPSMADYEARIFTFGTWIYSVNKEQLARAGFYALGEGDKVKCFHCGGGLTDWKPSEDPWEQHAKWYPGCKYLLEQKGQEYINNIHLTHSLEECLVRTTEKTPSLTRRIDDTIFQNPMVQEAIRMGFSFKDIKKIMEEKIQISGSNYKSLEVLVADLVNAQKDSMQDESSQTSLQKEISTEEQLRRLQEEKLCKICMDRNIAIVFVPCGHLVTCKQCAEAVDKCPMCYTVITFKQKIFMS

Compound: CCn1c(CSc2nnc(-c3cccnc3)n2-c2ccccc2C)nc2cc(C(=O)O)ccc21
- IC50 [1]: > 1.56 µM (inactive)
- IC50 [2]: > 0.781 µM (not active)
- IC50 [3]: < 0.781 µM (active)

Compound: O=C(COc1ccc(/C=N/NC(=O)c2cc3ccccc3o2)cc1Br)Nc1ccccc1
- EC50 [4]: > 79.4 µM (not active)
- EC50 [5]: > 79.4 µM (not active)
- EC50 [6]: > 79.4 µM (not active)
- EC50 [7]: 9.11 µM (inconclusive)
- EC50 [8]: 1.97 µM (active)
- IC50 [9]: > 2.57 µM (not active)
- EC50 [10]: > 60 µM (not active)
- EC50 [11]: > 92.5 µM (inactive)
- EC50 [12]: > 92.5 µM (inactive)
- EC50 [13]: > 92.5 µM (inactive)
- IC50 [14]: 12.4 µM (active)
- IC50 [15]: > 100 µM (inactive)
- IC50 [16]: 76.3 µM (active)

Compound: CC(Oc1cc2oc(=O)c3c(c2cc1Cl)CCCC3)C(=O)NCc1ccccn1 (stereo not given)
- IC50 [17]: > 100 µM (active)

Compound: O=C1C(Cl)=C(N2CCN(CCOCCO)CC2)C(=O)N1c1ccnc(Cl)c1
- IC50 [18]: > 100 µM (not active)
- IC50 [19]: 20.5 µM (active)
- IC50 [20]: 33.2 µM (active)

Compound: O=C(O)C(Cc1ccccc1)N1C(=O)/C(=C/c2cccc3ccccc23)SC1=S (stereo not given)
- IC50 [21]: > 73.5 µM (not active)
- EC50 [22]: 16.5 µM (active)
- IC50 [23]: 14.9 µM (active)
- IC50 [24]: > 20 µM (inactive)
- IC50 [25]: > 20 µM (inactive)
- IC50 [26]: 28.4 µM (not active)
- IC50 [27]: 18.5 µM (inactive)
- IC50 [28]: > 50 µM (not active)

Compound: Cc1nn(CC(=O)c2cc(C)n(Cc3ccccc3)c2C)c(C)c1[N+](=O)[O-]
- EC50 [29]: > 30 µM (not active)

Compound: Cc1sc2ncnc(NCCc3ccc(S(N)(=O)=O)cc3)c2c1C
- IC50 [30]: > 42 µM (not active)
- EC50 [31]: > 195 µM (not active)
- IC50 [32]: 2.95 µM (active)
- EC50 [33]: > 29.9 µM (inactive)
- IC50 [34]: 4.23 µM (active)

Compound: Fc1ccc(-c2nnc(CSc3nnc(-c4cccs4)o3)o2)cc1
- IC50 [35]: > 100 µM (active)
